The record followed here is patent publication US10508120B2, “TYK2 inhibitors and uses thereof” (Nimbus Lakshmi, Inc., priority 2017, dated 2019).

In assay [1] the target is JAK2 kinase domain (JH1) (Homo sapiens (Human), UniProt O60674). Nature of the assay: JAK2 Radioactive Kinase Assay. It counts as biochemical. Conditions: for JAK2 JH1% Inhibition @ 10 μM: compound at 10 μM, ATP 10 μM. The method, then: (§1) The Tyk2 and JAK2 radioactive kinase assay measures the percent inhibition at the Tyk2 kinase domain (DH1) and the percent inhibition at the JAK2 kinase domain (JH1). Results of the assay are expressed as percent inhibition at 10 μM.
Chain of JAK2 kinase domain (JH1) (O60674 849-1124): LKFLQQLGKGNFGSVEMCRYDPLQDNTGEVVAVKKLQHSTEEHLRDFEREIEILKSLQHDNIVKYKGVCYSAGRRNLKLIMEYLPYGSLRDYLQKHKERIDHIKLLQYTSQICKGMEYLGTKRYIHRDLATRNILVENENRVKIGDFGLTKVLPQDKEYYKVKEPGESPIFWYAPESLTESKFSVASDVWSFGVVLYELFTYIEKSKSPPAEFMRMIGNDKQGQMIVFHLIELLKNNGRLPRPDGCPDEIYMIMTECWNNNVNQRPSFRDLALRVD

The target in assay [2] is Tyk2 kinase domain (DH1) (Homo sapiens (Human), UniProt P29597). Kind of assay: Tyk2 Radioactive Kinase Assay. Conditions: for Tyk2 JH1% Inhibition @ 10 μM: compound at 10 μM, ATP 10 μM. It counts as biochemical. As to the method:
as §1

Chain of Tyk2 kinase domain (DH1) (P29597 897-1176): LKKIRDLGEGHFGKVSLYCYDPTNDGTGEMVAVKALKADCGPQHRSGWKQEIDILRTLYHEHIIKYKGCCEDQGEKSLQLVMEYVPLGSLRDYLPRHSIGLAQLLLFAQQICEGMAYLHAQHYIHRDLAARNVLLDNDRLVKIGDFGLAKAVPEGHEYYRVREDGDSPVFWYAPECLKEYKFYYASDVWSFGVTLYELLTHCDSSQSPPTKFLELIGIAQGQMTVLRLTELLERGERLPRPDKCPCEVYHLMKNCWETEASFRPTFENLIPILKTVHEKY

Regarding `CNc1cc(-c2cn(C(C)C)c3ncccc23)nc2c(C(=O)N[C@@H]3C[C@H]3O)cnn12` (stereo in doubt) [I-732, N-((1R,2R)-2-hydroxycyclopropyl)-5-(1-isopropyl-1H-pyrrolo[2,3-b]pyridin-3-yl)-7-(methylamino)pyrazolo[1,5-a]pyrimidine-3-carboxamide], the “JAK2 JH1% Inhibition @ 10 μM” value in assay [1] was “A (percent inhibition at 10 μM lower than 50)”. Further, in assay [2], the “Tyk2 JH1% Inhibition @ 10 μM” value is “A (percent inhibition at 10 μM lower than 50)”.

For `CNc1cc(Nc2cccnc2OC)nc2c(C(=O)N[C@@H]3CCC[C@H]3O)cnn12` [I-448, (R)—N-((1R,2R)-2-hydroxycyclopentyl)-5-((2-methoxypyridin-3-yl)amino)-7-(methylamino)pyrazolo[1,5-a]pyrimidine-3-carboxamide], in assay [1], the “JAK2 JH1% Inhibition @ 10 μM” value is “A (percent inhibition at 10 μM lower than 50)”. The “Tyk2 JH1% Inhibition @ 10 μM” value in assay [2] is reported as “A (percent inhibition at 10 μM lower than 50)”.

Consider `CNc1cc(Nc2cccnc2OC2CC2)nc2c(C(=O)N[C@H]3CC[C@H](O)C3)cnn12` [I-489, 5-((2-cyclopropoxypyridin-3-yl)amino)-N-((1S,3S)-3-hydroxycyclopentyl)-7-(methylamino)pyrazolo[1,5-a]pyrimidine-3-carboxamide], for which the “JAK2 JH1% Inhibition @ 10 μM” value in assay [1] was “A (percent inhibition at 10 μM lower than 50)”. Moreover, the “Tyk2 JH1% Inhibition @ 10 μM” value in assay [2] was “A (percent inhibition at 10 μM lower than 50)”.

In the case of `CNc1cc(Nc2cccn(C3CCOCC3)c2=O)nc2c(C(=O)N[C@H]3CC[C@@H]3O)cnn12` [I-596], the “JAK2 JH1% Inhibition @ 10 μM” value in assay [1] is recorded as “A (percent inhibition at 10 μM lower than 50)”. The “Tyk2 JH1% Inhibition @ 10 μM” value in assay [2] is “A (percent inhibition at 10 μM lower than 50)”.

Consider `CNc1cc(Nc2cccn([C@H]3CC[C@H](OC)CC3)c2=O)nc2c(C(=O)N[C@H]3CC[C@@H]3O)cnn12` [I-636], for which the “JAK2 JH1% Inhibition @ 10 μM” value in assay [1] is on record as “A (percent inhibition at 10 μM lower than 50)”. For the same compound, the “Tyk2 JH1% Inhibition @ 10 μM” value in assay [2] is given as “A (percent inhibition at 10 μM lower than 50)”.

`CNc1cc(Nc2cccc([C@@H]3CCCCO3)n2)nc2c(C(=O)N[C@@H]3CC[C@@H]3O)cnn12` [I-646]: the “JAK2 JH1% Inhibition @ 10 μM” value in assay [1] was “A (percent inhibition at 10 μM lower than 50)”. Besides, in assay [2], the “Tyk2 JH1% Inhibition @ 10 μM” value is reported as “A (percent inhibition at 10 μM lower than 50)”.

For `CNc1cc(Nc2cccc([C@H]3CCCOC3)n2)nc2c(C(=O)N[C@H]3CC[C@@H]3O)cnn12` [I-666], the “JAK2 JH1% Inhibition @ 10 μM” value in assay [1] is listed as “A (percent inhibition at 10 μM lower than 50)”. Further, in assay [2], the “Tyk2 JH1% Inhibition @ 10 μM” value is listed as “A (percent inhibition at 10 μM lower than 50)”.

`CNc1cc(Nc2cccn([C@H]3CCN(C)C[C@@H]3F)c2=O)nc2c(C(=O)NC3CC3)cnn12` [I-685]: the “JAK2 JH1% Inhibition @ 10 μM” value in assay [1] was “A (percent inhibition at 10 μM lower than 50)”. Moreover, the “Tyk2 JH1% Inhibition @ 10 μM” value in assay [2] was “A (percent inhibition at 10 μM lower than 50)”.

As to `CNc1cc(Nc2cccn([C@H]3CCCOC3)c2=O)nc2c(C(=O)N[C@H]3CC[C@@H]3O)cnn12` [I-724], in assay [1], the “JAK2 JH1% Inhibition @ 10 μM” value was “A (percent inhibition at 10 μM lower than 50)”. The “Tyk2 JH1% Inhibition @ 10 μM” value in assay [2] is given as “A (percent inhibition at 10 μM lower than 50)”.

Regarding `CNc1cc(Nc2cccn([C@@H]3CCCOC3)c2=O)nc2c(C(=O)N[C@H]3CC[C@@H]3O)cnn12` [I-726], the “JAK2 JH1% Inhibition @ 10 μM” value in assay [1] is “A (percent inhibition at 10 μM lower than 50)”. Also, the “Tyk2 JH1% Inhibition @ 10 μM” value in assay [2] is listed as “A (percent inhibition at 10 μM lower than 50)”.

For the compound `CNc1cc(Nc2cccn(-c3nc(C)co3)c2=O)nc2c(C(=O)N[C@H]3CC[C@@H]3O)cnn12` [I-769], the “JAK2 JH1% Inhibition @ 10 μM” value in assay [1] is reported as “A (percent inhibition at 10 μM lower than 50)”. The “Tyk2 JH1% Inhibition @ 10 μM” value in assay [2] is recorded as “A (percent inhibition at 10 μM lower than 50)”.

Regarding `CNc1cc(Nc2cccn([C@@H]3CCCOC3)c2=O)nc2c(C(=O)N[C@@H]3CCC[C@@H](O)C3)cnn12` [I-780], the “JAK2 JH1% Inhibition @ 10 μM” value in assay [1] is recorded as “A (percent inhibition at 10 μM lower than 50)”. Further, the “Tyk2 JH1% Inhibition @ 10 μM” value in assay [2] is on record as “A (percent inhibition at 10 μM lower than 50)”.

For the compound `CNc1cc(Nc2cccn([C@@H]3CCCOC3)c2=O)nc2c(C(=O)N[C@H]3COC[C@H]3O)cnn12` [I-786], in assay [1], the “JAK2 JH1% Inhibition @ 10 μM” value was “A (percent inhibition at 10 μM lower than 50)”. In addition, the “Tyk2 JH1% Inhibition @ 10 μM” value in assay [2] is on record as “A (percent inhibition at 10 μM lower than 50)”.

With `CNc1cc(Nc2cccn([C@@H]3CC[C@H]3O)c2=O)nc2c(C(=O)NC3CC3)cnn12` [I-802], the “JAK2 JH1% Inhibition @ 10 μM” value in assay [1] is “A (percent inhibition at 10 μM lower than 50)”. Further, the “Tyk2 JH1% Inhibition @ 10 μM” value in assay [2] is recorded as “A (percent inhibition at 10 μM lower than 50)”.

For `CNc1cc(Nc2cccn([C@H]3CCCOC3)c2=O)nc2c(C(=O)N[C@H]3CC[C@H]3O)cnn12` [I-803], the “JAK2 JH1% Inhibition @ 10 μM” value in assay [1] is listed as “A (percent inhibition at 10 μM lower than 50)”. In addition, the “Tyk2 JH1% Inhibition @ 10 μM” value in assay [2] was “A (percent inhibition at 10 μM lower than 50)”.

`CNc1cc(Nc2cccn([C@H]3CCC[C@H](O)C3)c2=O)nc2c(C(=O)NC3CC3)cnn12` [I-821]: the inhibition (commonly the percentage by which the read-out fell short of the control) at 10 µM in assay [1] (10 μM compound, 10 μM ATP, read-out: JAK2 JH1% Inhibition @ 10 μM) was less than 50%; in assay [2] (10 μM compound, 10 μM ATP, read-out: Tyk2 JH1% Inhibition @ 10 μM) it was less than 50%.
